# Experimental data reported in US7270968B2, “PTH analogs for renal osteodystrophy and related uses” (The General Hospital Corporation, priority 2000, dated 2007).
# Read-outs that look alike come from different tables or passages of the source.
# How the values were obtained:
# Gs-linked PTH receptors [1] = conditions: F1 cells and osteoblastic subclones; cited from earlier work
# CPTHR [2] = test: Downregulation of CPTHR binding in C59 cells after pretreatment; format: cell-based, mouse; conditions: for Radioligand binding, % of controls after drug removal: 24 h after removal; for Reduction of specific binding: preincubation 16 h; for Downregulation of CPTHR binding: exposure 24 hr
# Procedure: Specific binding, is expressed as mean ± standard deviation of triplicates. * p<0.05, ** P<0.01.
# For binding experiments, cells (100,000 cells/ml) were plated in 24-well dishes and cultured at 33° C. for 7 to 14 days. […] Receptor number was ascertained by Scatchard analysis, using [Tyr^34]hPTH-(19-84) or hPTH(1-84) as competing ligand. […] In some experiments, cells were washed with acidic buffer (50 mM glycine, 150 mM NaCl, pH 4.0) to remove residual bound ligand, prior to addition of radioligand.
# (1 mM), forskolin (10 μM), insulin (100 ng/mL), IGF-1 ([…]) or dexamethasone (100 nM).
# PTH1R = target: T1, PTH1R (Homo sapiens, UniProt Q03431); conditions: cited from earlier work
# T1 sequence (Q03431 27-593): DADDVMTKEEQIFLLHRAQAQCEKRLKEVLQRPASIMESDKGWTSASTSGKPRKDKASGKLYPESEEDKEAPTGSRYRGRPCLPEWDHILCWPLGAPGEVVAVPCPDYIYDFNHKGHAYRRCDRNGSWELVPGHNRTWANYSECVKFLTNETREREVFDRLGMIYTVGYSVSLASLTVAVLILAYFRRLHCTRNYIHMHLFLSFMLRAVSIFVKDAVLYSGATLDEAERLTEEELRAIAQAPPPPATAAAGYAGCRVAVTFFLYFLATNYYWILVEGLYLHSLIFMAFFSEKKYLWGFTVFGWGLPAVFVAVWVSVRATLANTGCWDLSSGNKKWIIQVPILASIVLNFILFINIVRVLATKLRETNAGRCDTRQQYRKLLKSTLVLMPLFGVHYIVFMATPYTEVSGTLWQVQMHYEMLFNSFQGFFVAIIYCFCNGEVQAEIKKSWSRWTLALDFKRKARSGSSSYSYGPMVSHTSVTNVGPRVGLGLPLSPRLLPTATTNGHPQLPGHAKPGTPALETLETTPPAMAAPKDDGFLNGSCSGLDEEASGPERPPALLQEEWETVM
# OC14 cells = test: Cell death by trypan blue staining in OC14 cells; format: cell-based, mouse
# Procedure: OC14 cells were plated, cultured at 33° C. for 3 days and then incubated at 39° C. for 5-7 days before addition of PTH peptides for a further 16 hr, followed by trypan blue staining (see Example 1). A) Human PTH 1-84 dose response, B) Response to hPTH(1-84), 100 nM and hPTH(39-84), 1000 nM, C) Response to [Tyr^34]hPTH(24-84), 100 nM, D) Caspase dependance (“C”=controls) The Caspase-3 inhibitor DEVD (“D”) was added 1 hr prior to addition of 100 nM hPTH(1-84) (“P”). Results are expressed as mean±SD of quadruplicate determinations of the percentage of nonvital trypan blue-stained cells. * p<0.05, ** p<0.01.
# Briefly, cells were plated at 50,000 cells/well in 24-well dishes at 33° C. and shifted to nonpermissive conditions (39° C.) after 2 days. Cells were grown at 39° C. for an additional 4-6 days in α-MEM supplemented with 2.5% of FBS and 1% PS and then treated with different hormones for additional 16-18 hr. Non-adherent cells were combined with adherent cells that were released from the cultures with trypsin-EDTA, centrifuged and resuspended in 0.1% trypan blue solution.
# Gs-linked PTH receptors [3] = test: Cyclic AMP accumulation in C cells (OC1, OC14, OC59); format: cell-based, mouse; conditions: three C cells
# Procedure: The buffer then was rapidly aspirated, the plates were frozen in liquid nitrogen, and the frozen cells were subsequently thawed directly into 0.5 ml of 50 mM HCl. Cell-associated cAMP in the acid extracts was measured using an RIΛ kit (NUN Life Science Products, Boston, Mass., U.S.A.). Results were expressed as picomoles of cAMP produced per well over 15 min.
# CPTHR [4] = test: Competitive displacement of 125I-[Tyr34]hPTH(19-84) radioligand in C59 (OC59) cells; format: binding, mouse; conditions: for Binding to the CPTHR: Example 2, either alone or in combination
# Procedure: The human PTH peptides shown were tested for their ability to displace the ^125I-[Tyr^34]hPTH(19-84) tracer in C59 cells. Experiments were performed as described in FIG. 1. Results are expressed as the percentage of maximal specific binding observed in the absence of competing ligand and are shown as mean±standard deviation of triplicates in this representative experiment.
# OC59 cells were incubated at 15° C. for 4 hr with ^125I[Tyr^34]hPTH(19-84) tracer (150,000 cpn/well) plus the indicated competing human PTH peptides. Results are means of triplicates.
# The [Tyr^34]hPTH(19-84) peptide was radioiodinated with Na[^125I](2000 Ci/mmol) by the chloramine-T method and purified by HPLC, as previously described (Inomata, N., et al., Endocrinology 136:4732-4740 (1995)). For binding experiments, cells (100,000 cells/ml) were plated in 24-well dishes and cultured at 33° C. for 7 to 14 days. Confluent monolayers then were washed with 0.5 ml binding buffer [100 mM NaCl, 5 mM KCl, 2 mM CaCl2, 50 mM Tris-HCl (pH 7.8) plus 5% heat-inactivated horse serum] before incubation with ^125I-[Tyr^34]hPTH-(19-84) (100,000-200,000 cpm/well) in 0.5 ml binding buffer for 4 h at 15° C. Receptor number was ascertained by Scatchard analysis, using [Tyr^34]hPTH-(19-84) or hPTH(1-84) as competing ligand. […] In some experiments, cells were washed with acidic buffer (50 mM glycine, 150 mM NaCl, pH 4.0) to remove residual bound ligand, prior to addition of radioligand.
compound,measurement,setting,value
hPTHrP(1-36): Human PTH-related peptide fragment 1-36,cAMP response,Gs-linked PTH receptors [1],no detectable cAMP response
CCCCCCCCCCCCCC(=O)O[C@@H]1[C@@H](C)[C@@]2(O)[C@@H](C=C(CO)C[C@]3(O)C(=O)C(C)=C[C@@H]23)[C@H]2C(C)(C)[C@]12OC(C)=O [TPA],"Radioligand binding, % of controls after drug removal",CPTHR [2],63%
same,Reduction of specific binding,CPTHR [2]; 10 nM,48±12%
"PTH(53-84): Carboxyl fragment 53-84 of intact PTH (KKEDNVLVESHEKSLGEADKADVNVLTKAKSQ; Parathyroid hormone; UniProt P01270 84-115, looked up, fragment)",Binding and activation of the PTH1R,PTH1R,neither bind nor activate
hPTH(1-34): Amino-terminal human PTH fragment 1-34,Effect on cell death (trypan blue),OC14 cells; concentrations as high as 1000 nM,inactive
same,Downregulation of CPTHR binding,CPTHR [2]; 1 μM,No downregulation
same,cAMP response,Gs-linked PTH receptors [3],absence of a detectable cAMP response
same,cAMP response,Gs-linked PTH receptors [1],no detectable cAMP response
same,Displacement of the tracer,CPTHR [4]; concentrations up to 1000 nM,did not displace the tracer significantly
C[C@H](CCC(=O)O)C[C@H](C)C[C@H](C)C(=O)/C=C(\O)[C@H](C)C[C@H](C)C/C=C/[C@@H](C)[C@@H](O)[C@@H](C)[C@@H](O)C[C@@H]1CC[C@@](C)([C@H]2CC[C@@](C)([C@@H](C)O)O2)O1 [ionomycin],"Radioligand binding, % of controls after drug removal",CPTHR [2],100%
same,Reduction of specific binding,CPTHR [2]; 1 μM,71±3%
IGF-1: IGF-1,Downregulation of CPTHR binding,CPTHR [2],No downregulation
"hPTH(20-30): Short synthetic human PTH peptide spanning residues 20-30 (RVEWLRKKLQD; Parathyroid hormone; UniProt P01270 51-61, looked up, fragment)",Binding to the CPTHR,CPTHR [4],failed to bind
"C=C1/C(=C\C=C2/CCC[C@]3(C)[C@@H]([C@H](C)CCCC(C)(C)O)CC[C@@H]23)C[C@@H](O)C[C@@H]1O [1,25(OH)2D3]",Downregulation of CPTHR binding,CPTHR [2]; 10 nM,No downregulation
"hPTH(39-84): C-terminal human PTH fragment 39-84, purchased from Peninsula (APLAPRDAGSQRPRKKEDNVLVESHEKSLGEADKADVNVLTKAKSQ; Parathyroid hormone; UniProt P01270 70-115, looked up, fragment)",Increase in trypan blue-stained cells over basal,"OC14 cells; 1000 nM, 16 hr",1.5 fold
same,Downregulation of CPTHR binding,CPTHR [2]; 1 μM,No downregulation
same,Binding and activation of the PTH1R,PTH1R,neither bind nor activate
same,IC50,"CPTHR [4]; C59 cells, 4 h at 15° C.",0.5 to 0.7 µM
same,IC50 relative to hPTH(1-84) and hPTH(19-84),CPTHR [4]; OC cells,roughly 15 fold
"hPTH(50-60): Short synthetic human PTH peptide spanning residues 50-60 (RPRKKEDNVLV; Parathyroid hormone; UniProt P01270 81-91, looked up, fragment)",Binding to the CPTHR,CPTHR [4],failed to bind
"hPTH(24-54): Short synthetic human PTH peptide spanning both binding domains 24-27 and 53-54 (LRKKLQDVHNFVALGAPLAPRDAGSQRPRKK; Parathyroid hormone; UniProt P01270 55-85, looked up, fragment)",EC50,"CPTHR [4]; Example 2, PTH1R-null CPTHR-expressing calvarial-derived clonal cells, read-out: apparent EC50, competition of [Tyr34]125I-hPTH(19-84) tracer",20 µM
insulin: insulin,Downregulation of CPTHR binding,CPTHR [2]; 100 ng/mL,No downregulation
